Data: patent US10590086B2, “Pharmaceutical compound” (IOmet Pharma Ltd., priority 2014, dated 2020)

How the values were obtained:
TDO [1] = molecular target: T1, TDO (Homo sapiens, UniProt P48775); experiment: A172 kynurenine cell-based assay; parameters: This assay utilised cancer cells which expressed either TDO or IDO; endogenous in cells; host or cells: A172 (human glioblastoma); conditions: A172 human glioblastoma cells, 48 hours, read-out: A172 Kynurenine cell based assay pIC50 (converted)
In short: (§1)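 Cellular kynurenine production, TDO via A172 glioblastoma and IDO via IFN-γ-stimulated SKOV3 ovarian adenocarcinoma cells, was quantified after 48 hours' compound treatment in 500 μM L-tryptophan medium, using Erhlich's reagent and absorbance at 490 nm.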

IDO [2] = molecular target: T2, IDO (Homo sapiens, UniProt P14902); experiment: hIDO biochemical coupled assay; conditions: 45 μM L-tryptophan, read-out: hIDO biochemical assay pIC50 (converted)
Excerpt: Two different assays were employed: 1. a cell-based assay for detecting the effect of test compounds on kynurenine production in two different cancer cell types. This assay utilised cancer cells which expressed either TDO or IDO and as such was used as a means of testing compound activity at these two enzymes in a cell-based context. 2. a TDO and IDO biochemical coupled assay which utilised recombinantly produced and purified TDO and IDO enzymes in combination with the enzyme formamidase. This coupled enzyme system allowed conversion of N-formylkynurenine produced by TDO or IDO activity to kynurenine which was then quantified by fluorescence following addition of Erhlich's Reagent The protocols for these are set out below.

IDO [3] = molecular target: T2, IDO; experiment: SKOV3 kynurenine cell-based assay (IDO induced by IFN-γ); parameters: IDO expression was induced in the SKOV3 cells by the addition of 500 ng/ml IFN-γ; endogenous in cells; host or cells: SKOV3 (human ovarian adenocarcinoma), induced with IFN-γ; conditions: 48 hours, read-out: SKOV3 Kynurenine cell based assay pIC50 (converted)
In short: as §1

TDO [4] = molecular target: T1, TDO; experiment: hTDO biochemical coupled assay; conditions: 330 μM L-tryptophan, 17 minutes, room temperature; read-out: hTDO biochemical assay pIC50 (converted)
[5] = SKOV3 human ovarian adenocarcinoma cells, 500 ng/ml IFN-γ, 500 μM L-tryptophan

T2 sequence (P14902 whole entry): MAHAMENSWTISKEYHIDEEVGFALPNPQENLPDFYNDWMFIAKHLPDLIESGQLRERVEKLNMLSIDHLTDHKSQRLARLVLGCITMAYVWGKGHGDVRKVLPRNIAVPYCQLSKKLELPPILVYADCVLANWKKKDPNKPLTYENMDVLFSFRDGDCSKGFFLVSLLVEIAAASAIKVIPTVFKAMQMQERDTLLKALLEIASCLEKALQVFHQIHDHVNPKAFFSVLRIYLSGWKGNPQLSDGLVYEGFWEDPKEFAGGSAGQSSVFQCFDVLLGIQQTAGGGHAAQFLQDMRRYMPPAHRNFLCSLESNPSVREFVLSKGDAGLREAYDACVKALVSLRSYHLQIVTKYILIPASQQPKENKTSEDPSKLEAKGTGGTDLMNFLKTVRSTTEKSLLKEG
T1 sequence (P48775 whole entry): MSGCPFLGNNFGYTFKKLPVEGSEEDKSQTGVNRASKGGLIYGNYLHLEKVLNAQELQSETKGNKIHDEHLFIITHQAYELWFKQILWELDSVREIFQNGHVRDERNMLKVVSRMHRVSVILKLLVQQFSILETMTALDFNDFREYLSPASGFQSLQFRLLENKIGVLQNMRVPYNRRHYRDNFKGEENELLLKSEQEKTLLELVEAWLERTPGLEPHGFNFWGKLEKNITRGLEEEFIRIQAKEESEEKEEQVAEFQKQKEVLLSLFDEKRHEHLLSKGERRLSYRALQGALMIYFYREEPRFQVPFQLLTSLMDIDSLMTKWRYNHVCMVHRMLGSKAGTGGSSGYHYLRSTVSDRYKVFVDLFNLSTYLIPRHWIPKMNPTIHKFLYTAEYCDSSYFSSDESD

Row | SMILES | IC50 (TDO [1]; 500 μM L-tryptophan) [µM] | IC50 (TDO [1]) [µM] | IC50 (IDO [2]) [µM] | IC50 (IDO [3]; SKOV3 cells, IDO induced by 500 ng/ml IFN-γ) [µM] | IC50 (IDO [3]; [5]) [µM] | IC50 (IDO [2]; 17 minutes, room temperature) [µM] | IC50 (TDO [4]) [µM]
1 | CC(=O)NC1CCC(c2cc(Cl)cc3[nH]ncc23)CC1 (mixture of isomers) [Compound 155, N-(4-(6-chloro-1H-indazol-4-yl)cyclohexyl) acetamide] | < 3.16 | 0.24 | 191 | 12.3 | 3.24 to 31.6 |  | 
2 | CS(=O)(=O)N1CCN(c2cc(Cl)cc3[nH]ncc23)C2CCCCC21 (racemic) [Compound 341] | 3.24 to 31.6 |  |  |  | 32.4 to 100 | > 100 | > 100
3 | CS(=O)(=O)N1CCN(c2cc(Cl)cc3[nH]ncc23)C2CCCCC21 (single isomer, unassigned) [Compound 385] | 32.4 to 100 |  |  |  | 32.4 to 100 | > 100 | > 100
4 | CS(=O)(=O)N1CCN(c2cc(Cl)cc3[nH]ncc23)C2CCCCC21 (single isomer, unassigned) [Compound 386] | 3.24 to 31.6 |  |  |  | 3.24 to 31.6 |  | 3.24 to 31.6
5 | CS(=O)(=O)N1CCN(c2cc(C(F)(F)F)cc3[nH]ncc23)C2CCCCC21 (single isomer, unassigned) [Compound 415] | 3.24 to 31.6 |  |  |  | > 100 | > 100 | 3.24 to 31.6
6 | O=S(=O)(Nc1cccc2[nH]ncc12)c1ccccc1 [Compound 2] |  |  |  |  |  | > 100 | 32.4 to 100
7 | Cc1noc(C)c1S(=O)(=O)Nc1cccc2[nH]ncc12 [Compound 3] |  |  |  |  |  | > 100 | 3.24 to 31.6
8 | CC(C)(C)CC(=O)Nc1cccc2[nH]ncc12 [Compound 4, N-(1H-indazol-4-yl)-3,3-dimethylbutanamide] | 32.4 to 100 |  |  |  | > 100 | > 100 | < 3.16
9 | O=C(Nc1cccc2[nH]ncc12)C1CCOCC1 [Compound 5] |  |  |  |  |  | > 100 | 32.4 to 100
10 | CN(C)S(=O)(=O)Nc1cccc2[nH]ncc12 [Compound 7] |  |  |  |  |  | > 100 | 32.4 to 100
11 | CC(C)CS(=O)(=O)Nc1cccc2[nH]ncc12 [Compound 8] |  |  |  |  |  | > 100 | 3.24 to 31.6
12 | O=C(Nc1cccc2[nH]ncc12)c1ccccc1 [Compound 9] |  |  |  |  |  | > 100 | 32.4 to 100
13 | CS(=O)(=O)NCCOc1cccc2[nH]ncc12 [Compound 35] |  |  |  |  |  | > 100 | 3.24 to 31.6
14 | Cn1ncc2cccc(N3CCN(S(C)(=O)=O)CC3)c21 [Compound 37] |  |  |  |  |  | 32.4 to 100 | 32.4 to 100
15 | CC(=O)N1CCN(c2cccc3cnn(C)c23)CC1 [Compound 38] |  |  |  |  |  | 32.4 to 100 | 32.4 to 100
16 | CS(=O)(=O)N1CCN(c2cc(F)cc3[nH]ncc23)CC1 [Compound 44] |  |  |  |  |  | > 100 | < 3.16
17 | O=C(C1COC1)N1CCC(c2cc(Cl)cc3[nH]ncc23)CC1 [Compound 205] | < 3.16 |  |  |  | > 100 |  | 
18 | CS(=O)(=O)N1CCC(c2cc(N3CCOCC3)cc3[nH]ncc23)CC1 [Compound 206] | 3.24 to 31.6 |  |  |  | > 100 |  | 
19 | C[C@@H]1CN(S(C)(=O)=O)CCN1c1cc(C(F)(F)F)cc2[nH]ncc12 [Compound 208] | < 3.16 |  |  |  | 3.24 to 31.6 |  | 
20 | CS(=O)(=O)Nc1ccc(-c2cc(Cl)cc3[nH]ncc23)cc1 [Compound 220] | < 3.16 |  |  |  | 3.24 to 31.6 | > 100 | 
21 | CS(=O)(=O)N1CCN(c2cc(OC(F)(F)F)cc3[nH]ncc23)CC1 [Compound 221] | 3.24 to 31.6 |  |  |  | 32.4 to 100 | > 100 | 
22 | CC(=O)N1CCC(c2cc(C(C)C)cc3[nH]ncc23)CC1 [Compound 222] | 3.24 to 31.6 |  |  |  | 32.4 to 100 | 3.24 to 31.6 | 
23 | CC(C)c1cc(C2CCN(S(C)(=O)=O)CC2)c2cn[nH]c2c1 [Compound 223] | 3.24 to 31.6 |  |  |  | 32.4 to 100 | 3.24 to 31.6 | 
24 | O=C1NC2(CCO1)CCN(c1cc(Cl)cc3[nH]ncc13)CC2 [Compound 224] | < 3.16 |  |  |  | 32.4 to 100 | 32.4 to 100 | 
25 | CN(C)C(=O)C1CCN(c2cc(Cl)cc3[nH]ncc23)CC1 [Compound 225] | 3.24 to 31.6 |  |  |  | 3.24 to 31.6 | 3.24 to 31.6 | 
26 | CS(=O)(=O)NC1CCCN(c2cc(Cl)cc3[nH]ncc23)C1 (centres unmarked) [Compound 229] | 3.24 to 31.6 |  |  |  | 32.4 to 100 | > 100 | 
27 | CS(=O)(=O)N1CC2CCC1CN2c1cc(Cl)cc2[nH]ncc12 (centres unmarked) [Compound 230] | < 3.16 |  |  |  | 32.4 to 100 | > 100 | 
28 | CC(=O)N1CC2CCC1CN2c1cc(Cl)cc2[nH]ncc12 (centres unmarked) [Compound 233] | < 3.16 |  |  |  | 3.24 to 31.6 | 32.4 to 100 | 

Row | SMILES | IC50 (TDO [1]; 500 μM L-tryptophan) [µM] | IC50 (TDO [1]) [µM] | IC50 (IDO [2]) [µM] | IC50 (IDO [3]; SKOV3 cells, IDO induced by 500 ng/ml IFN-γ) [µM] | IC50 (IDO [3]; [5]) [µM] | IC50 (IDO [2]; 17 minutes, room temperature) [µM] | IC50 (TDO [4]) [µM]
29 | COC(=O)C1CCN(c2cc(Cl)cc3[nH]ncc23)CC1 [Compound 234] | < 3.16 |  |  |  | 32.4 to 100 | 3.24 to 31.6 | 
30 | Clc1cc(N2CCC(c3ncc[nH]3)CC2)c2cn[nH]c2c1 [Compound 235] | < 3.16 |  |  |  | 3.24 to 31.6 | > 100 | 
31 | CC(C)NC(=O)c1cc(Cl)cc2[nH]ncc12 [Compound 236] | 32.4 to 100 |  |  |  | 32.4 to 100 | > 100 | 
32 | O=C(NCc1ccccc1)c1cc(Cl)cc2[nH]ncc12 [Compound 237] | 32.4 to 100 |  |  |  | 32.4 to 100 | > 100 | 
33 | CC(C)CNC(=O)c1cc(Cl)cc2[nH]ncc12 [Compound 238] | 3.24 to 31.6 |  |  |  | 32.4 to 100 | > 100 | 
34 | CN(c1ccc(-c2cc(Cl)cc3[nH]ncc23)cc1)S(C)(=O)=O [Compound 239] | < 3.16 |  |  |  | 3.24 to 31.6 | 32.4 to 100 | 
35 | COC(=O)c1ccc(-c2cc(Cl)cc3[nH]ncc23)cc1 [Compound 240] | < 3.16 |  |  |  | 3.24 to 31.6 | > 100 | 
36 | CNc1ccc(-c2cc(Cl)cc3[nH]ncc23)cn1 [Compound 241] | 3.24 to 31.6 |  |  |  | 3.24 to 31.6 | > 100 | 
37 | CN(C1CCCN(c2cc(Cl)cc3[nH]ncc23)C1)S(C)(=O)=O (centres unmarked) [Compound 242] | 3.24 to 31.6 |  |  |  | 32.4 to 100 | > 100 | 
38 | CN(C1CCN(c2cc(Cl)cc3[nH]ncc23)C1)S(C)(=O)=O (centres unmarked) [Compound 243] | < 3.16 |  |  |  | 3.24 to 31.6 | 32.4 to 100 | 
39 | CC(=O)N1CCN(c2cc(OC(F)(F)F)cc3[nH]ncc23)CC1 [Compound 244] | 32.4 to 100 |  |  |  | 32.4 to 100 | > 100 | 
40 | CN1C(=O)CCC12CCN(c1cc(Cl)cc3[nH]ncc13)CC2 [Compound 245] | < 3.16 |  |  |  | 3.24 to 31.6 | 3.24 to 31.6 | 
41 | CC(=O)N(C)c1ccc(-c2cc(Cl)cc3[nH]ncc23)cc1 [Compound 248] | < 3.16 |  |  |  | 3.24 to 31.6 | 3.24 to 31.6 | 
42 | O=C(O)c1ccc(-c2cc(Cl)cc3[nH]ncc23)cc1 [Compound 253] | < 3.16 |  |  |  | > 100 | > 100 | 
43 | Cc1cc(-c2cc(Cl)cc3[nH]ncc23)ccc1S(C)(=O)=O [Compound 254] | < 3.16 |  |  |  | 3.24 to 31.6 | 32.4 to 100 | 
44 | O=C(NCC1CCCCC1)c1cc(Cl)cc2[nH]ncc12 [Compound 258] | > 100 |  |  |  | 3.24 to 31.6 | > 100 | 
45 | CCNC(=O)c1cc(Cl)cc2[nH]ncc12 [Compound 261] | 32.4 to 100 |  |  |  | > 100 | > 100 | 
46 | CC(C)COc1cccc2[nH]ncc12 [Compound 262] | > 100 |  |  |  | 3.24 to 31.6 | > 100 | 
47 | CN(C)C(=O)C1CCN(c2cc(Cl)cc3[nH]ncc23)C1 (centres unmarked) [Compound 263] | 3.24 to 31.6 |  |  |  | 3.24 to 31.6 | 3.24 to 31.6 | 
48 | CC(=O)NCC1CCN(c2cc(Cl)cc3[nH]ncc23)CC1 [Compound 270] | < 3.16 |  |  |  | 3.24 to 31.6 | 3.24 to 31.6 | 
49 | O=C(c1cc(Cl)cc2[nH]ncc12)N1CCCCC1 [Compound 274] | 3.24 to 31.6 |  |  |  | 32.4 to 100 | > 100 | 
50 | CC(=O)N1CCC(c2cc(OC(F)(F)F)cc3[nH]ncc23)CC1 [Compound 275] | 32.4 to 100 |  |  |  | 32.4 to 100 | > 100 | 
51 | CC(=O)NCc1ccc(-c2cc(Cl)cc3[nH]ncc23)cc1 [Compound 276] | < 3.16 |  |  |  | 3.24 to 31.6 | > 100 | 
52 | CS(=O)(=O)NCc1ccc(-c2cc(Cl)cc3[nH]ncc23)cc1 [Compound 292] | < 3.16 |  |  |  | 3.24 to 31.6 | > 100 | 
53 | OC(c1cc(Cl)cc2[nH]ncc12)C1CCCCC1 (centres unmarked) [Compound 293] | < 3.16 |  |  |  | 32.4 to 100 | > 100 | 
54 | COc1cc(-c2cc(Cl)cc3[nH]ncc23)ccc1S(C)(=O)=O [Compound 296] | 3.24 to 31.6 |  |  |  | 3.24 to 31.6 | > 100 | 
55 | O=C1NC2(CCN(c3cc(Cl)cc4[nH]ncc34)CC2)C(=O)N1c1ccccc1 [Compound 456] | < 3.16 |  |  |  |  | < 3.16 | < 3.16
